Measured values taken from US20260000655A1, “PHARMACEUTICAL COMPOSITION FOR USE IN PREVENTION OR TREATMENT OF LIFESTYLE-RELATED DISEASE” (priority 2022, published 2026).

Assays:
[1] = test system: high-fat diet-induced obesity model mice; assay: Pyruvic acid loading test in mouse; assay type: in vivo; settings: HPH-15 10 mg/kg or 100 mg/kg orally, 28 days; pyruvic acid 2 g/kg intraperitoneally; compared to olive oil
Method: The effect of HPH-15 on the changes in blood glucose levels in the presence of pyruvic acid involving in gluconeogenesis was examined using mice.
High-fat diet-induced obesity model mice were prepared in the same manner as in Example 7. Then, HPH-15 (10 mg/kg or 100 mg/kg, […]) dissolved in olive oil or metformin (300 mg/kg, […]) was orally administered once a day for 28 days. Olive oil alone was administered as a control. After 28 days of administration of each, pyruvic acid was intraperitoneally administered (2 g/kg) to the high-fat diet-induced obesity model mice, and blood glucose levels (mg/dl) were measured at 0, 15, 30, 60, 90, and 120 minutes after administration using a blood glucose meter Glutest Aqua (Sanwa Kagaku Kenkyusho Co., Ltd.).

[2] = test system: high-fat diet-induced obesity model mice; assay: Sirius Red staining and collagen amount in mouse tissue; assay type: in vivo; settings: HPH-15 10 mg/kg or 100 mg/kg, metformin 300 mg/kg, orally 28 days, Western blotting
Method: High-fat diet-induced obesity model mice were prepared in the same manner as in Example 7. Then, HPH-15 (10 mg/kg or 100 mg/kg, […]) dissolved in olive oil or metformin (300 mg/kg, […]) was orally administered once a day for 28 days. Olive oil alone was administered as a control. After 28 days of administration of each, the liver and the epididymal fat of the high-fat diet-induced obesity model mice were stained with Sirius Red and observed using a microscope.
Further, high-fat diet-induced obesity model mice were prepared in the same manner as in Example 7. Then, HPH-15 (10 mg/kg or 100 mg/kg, […]) dissolved in olive oil or metformin (300 mg/kg, […]) was orally administered once a day for 28 days. Olive oil alone was administered as a control. After 28 days of administration of each, equal amounts (50 mg) of tissue pieces were collected from the liver and epididymal adipose tissues of the high-fat diet-induced obesity model mice, transferred to 1.5 mL Eppendorf tubes, and washed twice with PBS. After washing, the tissue pieces were transferred to BIOMASHER II, […] of RIPA buffer was added, and the tissue pieces were homogenized on ice. After homogenization, the tissue pieces were centrifuged (10,000 rpm, 4° C., 5 min) and the supernatant was obtained as a protein solution. The concentration of the proteins thus obtained was corrected based on the protein concentration measured by the BCA method using bicinchoninic acid (BCA), thereby preparing samples for Western blotting. Western blotting was quantified using ImageJ to calculate the amount of collagen.

[3] = test system: Smad 3; settings: Non-Patent Literature 3; cited from earlier work
[4] = test system: myotube cell model L6-GLUT4myc, liver cell model HepG2 cells, adipocyte model 3T3-L1; assay: Glucose uptake (2-deoxyglucose) into cells; assay type: cell-based, rat, human, mouse; settings: HPH-15 10 μM or 50 μM vs metformin 2 mM; 24 hours; 2-deoxyglucose 2 mM, 20 minutes
Method: The uptake of glucose into cells by HPH-15 was examined using the myotube cell model L6-GLUT4myc, the liver cell model HepG2 cells, and the adipocyte model 3T3-L1.
The myotube cell model L6-GLUT4myc, the liver cell model HepG2 cells, and the adipocyte model 3T3-L1 used in Example 1 were each seeded onto a 24-well plate (1×10^5 cells/well, […] of culture liquid) and cultured overnight. Then, a DMSO solution (1%) containing HPH-15 (final concentration: 10 μM or 50 μM), metformin (final concentration: 2 mM), or insulin (final concentration: 100 nM) was added to the medium, and the cells were further cultured for 24 hours. As a control, only DMSO solution (1%) was added, and the cells were cultured for 24 hours in the same manner. Next, the cells were washed with KRPH buffer (containing 2% BSA) and cultured in the presence of 2-deoxyglucose (final concentration: 2 mM, FUJIFILM Wako Pure Chemical Corp.) for 20 minutes at 37° C. The uptake of 2-deoxyglucose was stopped by washing the cells with cold PBS, and the amount of glucose taken up into the cells was measured using a Glucose Cellular Uptake Measurement Kit (Cosmo Bio).

[5] = test system: high-fat diet-induced obesity model mice; assay: Blood test value in mouse; assay type: in vivo; settings: HPH-15 10 or 100 mg/kg orally 28 days
Method: High-fat diet-induced obesity model mice were prepared in the same manner as in Example 7. Then, […] of olive oil (Kenei Pharmaceutical Co., Ltd.) as a solvent, HPH-15 (10 mg/kg or 100 mg/kg, […]) dissolved in olive oil, or metformin (300 mg/kg, […]) was orally administered once a day for 28 days. After administration of each for 28 days, the blood from the high-fat diet-induced obesity model mice was examined at the Kumamoto Mouse Clinic (Kumamoto National University Corp.).

[6] = compared with metformin 300 mg/kg

## CC(C)(C)SCCNC(=S)c1cccc(C(=S)NCCSC(C)(C)C)n1 [HPH-15]
[1]
  blood glucose levels after pyruvic acid loading: significantly lowered
[2]
  amount of collagen in the epididymal adipose tissue: strongly reduced
  amount of collagen in the liver tissue: strongly reduced
[3]
  phosphorylation of Smad 3 induced by TGF-β: reduces the phosphorylation of Smad 3 induced by TGF-β
[4]
  glucose uptake amount: increased the glucose uptake amount to the same extent as or to a greater extent than metformin
[5]
  toxicity (blood test): No toxicity was observed
[5]; compared to olive oil
  other blood test items: no differences were observed
[5]; [6]
  ALT value (blood test): lower than that of metformin
  AST value (blood test): significantly lower than those of metformin
  LD value (blood test): significantly lower than those of metformin
